Results as given in PMC7894572 (Chemmedchem, 2020).
Counter-ions that a name gives are not always drawn. Like-named read-outs stand apart in the source and are kept apart here.

Legend:
SARS‐CoV PL^pro = SARS‐CoV PL^pro (Severe acute respiratory syndrome coronavirus, UniProt P0C6X7); assay: biochemical; assay type: biochemical
SARS‐CoV‐2 PL^pro = SARS‐CoV‐2 PL^pro (Severe acute respiratory syndrome coronavirus 2, UniProt P0DTD1); assay: biochemical; assay type: biochemical
SARS‐CoV‐2 = assay: microbe, parasite or virus in culture; assay type: cell-based; details: for EC50: Severe acute respiratory syndrome coronavirus 2, Vero C1008, 24 h, read-out: EC50 inhibition of SARS‐CoV‐2 replication
in vitro = details: African green monkey
[1] = read-out: Percentage inhibition SARS‐CoV‐2 PL^pro
[2] = read-out: Inhibition SARS‐CoV PL^pro, class (Table 1)
[3] = read-out: Inhibition SARS‐CoV‐2 PL^pro, class (Table 1)
[4] = read-out: Percentage inhibition SARS‐CoV PL^pro
[5] = read-out: Inhibition SARS‐CoV‐2 PL^pro, class (Table 2)
[6] = read-out: Inhibition SARS‐CoV PL^pro, class (Table 2)

Compound: 2‐Methyl‐N‐(naphth‐1‐ylethyl]benzamide [Compound 4 b]
- Inhibition of SARS‐CoV PL^pro, in words (SARS‐CoV PL^pro): inactive
- Inhibition SARS‐CoV PL^pro, class (Table 1) (SARS‐CoV PL^pro; 100 µM): n.a.^[b] (key: Compounds with inhibitory effect less than 50 % at 100 μM compared to DMSO were labelled as not active (n.a.))

Compound: Cc1ccccc1C(=O)N[C@H](C)c1cccc2ccccc12 [Compound 2 a, 2‐Methyl‐N‐[(1R)‐naphth‐1‐ylethyl]benzamide, reference compound]
- IC50 (SARS‐CoV‐2 PL^pro): 6.9 ± 0.7 µM

Compound: C[C@@H](NC(=O)c1ccccc1)c1cccc2ccccc12 [Compound 2 c, N ‐[(1R)‐1‐Naphth‐1‐ylethyl]benzamide]
- melting point: 195 °C
- IC50 (SARS‐CoV PL^pro): 62 ± 5 µM
- inhibition at 100 µM (SARS‐CoV‐2 PL^pro; [1]): 60%

Compound: C[C@@H](NC(=O)c1ccccc1C(F)(F)F)c1cccc2ccccc12 [Compound 2 d, N ‐[(1R)‐1‐Naphth‐1‐ylethyl]‐2‐(trifluormethyl)benzamide]
- inhibition at 100 µM (SARS‐CoV PL^pro; [2]): < 50%

Compound: C[C@@H](NC(=O)c1ccccc1C#N)c1cccc2ccccc12 [Compound 2 e, (R)‐2‐Cyano‐N‐(1‐(naphth‐1‐yl)ethyl)benzamide]
- melting point: 181 °C
- IC50 (SARS‐CoV PL^pro): 18 ± 2 µM
- inhibition at 100 µM (SARS‐CoV‐2 PL^pro; [3]): < 50%

Compound: C[C@@H](NC(=O)c1ccccc1F)c1cccc2ccccc12 [Compound 2 f, 2‐Fluor‐N‐[(1R)‐1‐naphth‐1‐ylethyl]benzamide]
- melting point: 135 °C
- IC50 (SARS‐CoV PL^pro): 9 ± 1 µM
- inhibition at 100 µM (SARS‐CoV‐2 PL^pro; [1]): 67%

Compound: C[C@@H](NC(=O)c1ccccc1Br)c1cccc2ccccc12 [Compound 2 g, 2‐Bromo‐N‐[(1R)‐1‐naphth‐1‐ylethyl]benzamide]
- melting point: 153 °C
- IC50 (SARS‐CoV PL^pro): 11 ± 2 µM
- inhibition at 100 µM (SARS‐CoV‐2 PL^pro; [1]): 73%

Compound: C[C@@H](NC(=O)c1ccccc1I)c1cccc2ccccc12 [Compound 2 h, 2‐Iodo‐N‐[(1R)‐1‐naphth‐1‐ylethyl]benzamide]
- melting point: 161 °C
- IC50 (SARS‐CoV PL^pro): 25 ± 3 µM
- inhibition at 100 µM (SARS‐CoV‐2 PL^pro; [3]): < 50%

Compound: C[C@@H](NC(=O)C1CCCCC1)c1cccc2ccccc12 [Compound 2 j, N ‐[(1R)‐1‐Naphth‐1‐ylethyl]cyclohexanecarboxamide]
- melting point: 170 °C
- Inhibition of SARS‐CoV PL^pro, in words (SARS‐CoV PL^pro): inactive
- inhibition at 100 µM (SARS‐CoV PL^pro; [2]): < 50%

Compound: C[C@@H](NC(=O)C(C)(C)C)c1cccc2ccccc12 [Compound 2 k]
- melting point: 131 °C
- Inhibition of SARS‐CoV PL^pro, in words (SARS‐CoV PL^pro): inactive
- inhibition at 100 µM (SARS‐CoV PL^pro; [2]): < 50%

Compound: C[C@@H](NC(=O)Cc1ccccc1)c1cccc2ccccc12 [Compound 2 l, N ‐[(1R)‐1‐Naphth‐1‐ylethyl]‐2‐phenylacetamid]
- melting point: 130 °C
- inhibition at 100 µM (SARS‐CoV PL^pro; [4]): 57%

Compound: C[C@@H](NC(=O)C(c1ccccc1)c1ccccc1)c1cccc2ccccc12 [Compound 2 m, (R)‐N‐(1‐(naphthalen‐1‐yl)ethyl)‐2,2‐diphenylacetamide]
- melting point: 152 °C
- Inhibition of SARS‐CoV PL^pro, in words (SARS‐CoV PL^pro): no inhibition
- inhibition at 100 µM (SARS‐CoV PL^pro; [2]): < 50%

Compound: Cc1ccsc1C(=O)N[C@H](C)c1cccc2ccccc12 [Compound 2 n, 3‐Methyl‐N‐[(1R)‐1‐naphth‐1‐ylethyl]thiophene‐2‐carboxamide]
- SI (selectivity index) (SARS‐CoV‐2): >105
- EC50 (SARS‐CoV‐2): 4.74 ± 1.35 µM
- CC50 (in vitro): > 500 µM
- IC50 (SARS‐CoV PL^pro): 14 ± 1 µM
- IC50 (SARS‐CoV‐2 PL^pro): 42 ± 6 µM

Compound: Cc1cc(NC(=O)OC(C)(C)C)ccc1C(=O)N[C@H](C)c1cccc2ccccc12 [Compound 2 o, (R)‐tert‐Butyl(3‐Methyl‐4‐((1‐(naphth‐1‐yl)ethyl)carbamoyl)phenyl)carbamate]
- IC50 (SARS‐CoV PL^pro): 1.6 ± 0.3 µM

Compound: Cc1cc(N)ccc1C(=O)N[C@H](C)c1cccc2ccccc12.Cl [Compound 2 p, (R)‐4‐Amino‐2‐methyl‐N‐[1‐(naphth‐1‐yl)ethyl]benzamide hydrochloride]
- SI (selectivity index) (SARS‐CoV‐2): >31.7
- EC50 (SARS‐CoV‐2): 15.8 ± 1.59 µM
- melting point: 231 °C
- CC50 (in vitro): > 500 µM
- IC50 (SARS‐CoV‐2 PL^pro): 7.5 ± 0.6 µM

Compound: Cc1ccc(NC(=O)OC(C)(C)C)cc1C(=O)N[C@H](C)c1cccc2ccccc12 [Compound 2 q, (R)‐tert‐Butyl (4‐Methyl‐3‐((1‐(naphth‐1‐yl)ethyl)carbamoyl)phenyl) carbamate]
- IC50 (SARS‐CoV PL^pro): 4.6 ± 0.4 µM

Compound: Cc1ccc(N(C)C)cc1C(=O)N[C@H](C)c1cccc2ccccc12 [Compound 2 r, (R)‐5‐(Dimethylamino)‐2‐methyl‐N‐[1‐(naphth‐1‐yl)ethyl]benzamide]
- IC50 (SARS‐CoV PL^pro): 4 ± 0.2 µM
- IC50 (SARS‐CoV‐2 PL^pro): 10 ± 2 µM

Compound: Cc1cc(NS(C)(=O)=O)ccc1C(=O)N[C@H](C)c1cccc2ccccc12 [Compound 2 s, 2‐Methyl‐4‐[(methylsulfonyl)amino]‐N‐[(1R)‐1‐naphth‐1‐ylethyl]benzamide]
- IC50 (SARS‐CoV PL^pro): 4.8 ± 0.3 µM
- IC50 (SARS‐CoV‐2 PL^pro): 10 ± 1 µM

Compound: CNS(=O)(=O)c1ccc(C)c(C(=O)N[C@H](C)c2cccc3ccccc23)c1 [Compound 2 t, 2‐Methyl‐5‐(methylsulfamoyl)‐N‐[(1R)‐1‐naphth‐1‐ylethyl]benzamide]
- melting point: 184 °C
- IC50 (SARS‐CoV PL^pro): 4 ± 0.3 µM
- inhibition at 100 µM (SARS‐CoV‐2 PL^pro; [1]): 87%

Compound: Cc1ccccc1C(=O)NC(C)c1ccccc1 (stereo not shown) [Compound 4 a, 2‐Methyl‐N‐(1‐phenyl)benzamide]
- inhibition at 100 µM (SARS‐CoV PL^pro; [2]): < 50%

Compound: Cc1ccccc1C(=O)NC(c1ccccc1)c1ccccc1 [Compound 4 c, N ‐(Diphenylmethyl)‐2‐methylbenzamide]
- Inhibition of SARS‐CoV PL^pro, in words (SARS‐CoV PL^pro): inactive
- inhibition at 100 µM (SARS‐CoV PL^pro; [2]): < 50%

Compound: Cc1ccccc1C(=O)N[C@@H](C)c1cccc2ccccc12 [Compound 4 d, 2‐Methyl‐N‐[(1S)‐1‐naphth‐1‐ylethyl]benzamide]
- inhibition at 100 µM (SARS‐CoV PL^pro; [2]): < 50%
- Inhibition of SARS‐CoV‐2 PL^pro, in words (SARS‐CoV‐2 PL^pro): not show inhibitory activity
- inhibition at 100 µM (SARS‐CoV‐2 PL^pro; [3]): < 50%

Compound: Cc1ccccc1C(=O)NC(CO)c1cccc2ccccc12 (stereo not shown) [Compound 8, N ‐(2‐Hydroxy‐1‐naphth‐1‐ylethyl)‐2‐methylbenzamide]
- Inhibition of SARS‐CoV PL^pro, in words (SARS‐CoV PL^pro): inactivity
- inhibition at 100 µM (SARS‐CoV PL^pro; [2]): < 50%

Compound: Cc1ccccc1NC(=O)C(C)c1cccc2ccccc12 (stereo not shown) [Compound 11 a, N ‐(2‐Methylphenyl)‐2‐naphth‐1‐ylpropanamide]
- melting point: 151 °C
- inhibition at 100 µM (SARS‐CoV PL^pro; [2]): < 50%
- Inhibition of SARS‐CoV‐2 PL^pro, in words (SARS‐CoV‐2 PL^pro): not show inhibitory activity
- inhibition at 100 µM (SARS‐CoV‐2 PL^pro; [3]): < 50%

Compound: CC(C(=O)Nc1ccccc1F)c1cccc2ccccc12 (stereo not shown) [Compound 11 b, N ‐(2‐Fluorphenyl)‐2‐naphth‐1‐ylpropanamide]
- melting point: 116 °C
- inhibition at 100 µM (SARS‐CoV PL^pro; [2]): < 50%
- inhibition at 100 µM (SARS‐CoV‐2 PL^pro; [3]): < 50%

Compound: CC(C(=O)Nc1ccc(S(N)(=O)=O)cc1)c1cccc2ccccc12 (stereo not shown) [Compound 11 c, 2‐Naphth‐1‐yl‐N‐(4‐sulfamoylphenyl)propanamide]
- melting point: 206 °C
- inhibition at 100 µM (SARS‐CoV PL^pro; [2]): < 50%
- inhibition at 100 µM (SARS‐CoV‐2 PL^pro; [3]): < 50%

Compound: CC(C(=O)NC1CCCCC1)c1cccc2ccccc12 (stereo not shown) [Compound 11 d, N ‐Cyclohexyl‐2‐naphth‐1‐ylpropanamide]
- melting point: 151 °C
- inhibition at 100 µM (SARS‐CoV PL^pro; [2]): < 50%
- inhibition at 100 µM (SARS‐CoV‐2 PL^pro; [3]): < 50%

Compound: Cc1cccc2c1CN([C@H](C)c1cccc3ccccc13)C2.Cl [Compound 14 a, 4‐Methyl‐2‐[(1R)‐1‐naphth‐1‐ylethyl]‐2,3‐dihydro‐1H‐isoindol hydrochloride]
- melting point: 247 °C
- inhibition at 10 µM (SARS‐CoV PL^pro; [4]): 45%
- inhibition at 100 µM (SARS‐CoV‐2 PL^pro; [5]): < 50%

Compound: c1ccc2c(c1)CN(Cc1cccc3ccccc13)C2 [Compound 14 c, 2‐(Naphth‐1‐ylmethyl)‐2,3‐dihydro‐1H‐isoindol hydrochloride]
- inhibition at 100 µM (SARS‐CoV PL^pro; [6]): < 50%

Compound: COc1ccc2c(c1)CN([C@H](C)c1cccc3ccccc13)C2 [Compound 14 d, 5‐Methoxy‐2‐[(1R)‐1‐naphth‐1‐ylethyl]‐2,3‐dihydro‐1H‐isoindol]
- IC50 (SARS‐CoV PL^pro): 14 ± 1 µM
- inhibition at 100 µM (SARS‐CoV‐2 PL^pro; [5]): < 50%

Compound: C[C@H](c1cccc2ccccc12)N1Cc2cccc([N+](=O)[O-])c2C1 [Compound 14 e, 2‐[(1R)‐1‐Naphth‐1‐ylethyl]‐4‐nitro‐2,3‐dihydro‐1H‐isoindole]
- Inhibition of SARS‐CoV PL^pro, in words (SARS‐CoV PL^pro): Inactive
- inhibition at 10 µM (SARS‐CoV PL^pro; [4]): < 50%

Compound: C[C@H](c1cccc2ccccc12)N1Cc2ccc([N+](=O)[O-])cc2C1 [Compound 14 f, 2‐[(1R)‐1‐Naphth‐1‐ylethyl]‐5‐nitro‐2,3‐dihydro‐1H‐isoindole]
- Inhibition of SARS‐CoV PL^pro, in words (SARS‐CoV PL^pro): Inactive
- inhibition at 100 µM (SARS‐CoV PL^pro; [6]): < 50%

Compound: C[C@H](c1cccc2ccccc12)N1Cc2ccccc2C1.Cl [Compound 14 h, 2‐[(1R)‐1‐Naphth‐1‐ylethyl]‐2,3‐dihydro‐1H‐isoindol hydrochloride]
- SI (selectivity index) (SARS‐CoV‐2): 56.3
- EC50 (SARS‐CoV‐2): 7.85 ± 1.5 µM
- CC50 (in vitro): 442 ± 1.37 µM
- IC50 (SARS‐CoV PL^pro): 2.9 ± 0.2 µM
- IC50 (SARS‐CoV‐2 PL^pro): 7.6 ± 0.2 µM

Compound: C[C@@H](c1cccc2ccccc12)N1Cc2ccccc2C1.Cl [Compound 14 i, 2‐[(1S)‐1‐Naphth‐1‐ylethyl]‐2,3‐dihydro‐1H‐isoindol hydrochloride]
- Inhibition of SARS‐CoV PL^pro, in words (SARS‐CoV PL^pro): abolished activity
- inhibition at 100 µM (SARS‐CoV PL^pro; [6]): < 50%
- Inhibition of SARS‐CoV‐2 PL^pro, in words (SARS‐CoV‐2 PL^pro): not show inhibitory activity
- inhibition at 100 µM (SARS‐CoV‐2 PL^pro; [5]): < 50%

Compound: C[C@H](c1cccc2ccccc12)N1Cc2cccc(N)c2C1 [Compound 14 j, 2‐[(1R)‐1‐Naphth‐1‐ylethyl]‐2,3‐dihydro‐1H‐isoindol‐4‐amine]
- IC50 (SARS‐CoV PL^pro): 32 ± 2 µM
- inhibition at 100 µM (SARS‐CoV‐2 PL^pro; [5]): < 50%

Compound: C[C@H](c1cccc2ccccc12)N1Cc2ccc(N)cc2C1 [Compound 14 k, 2‐[(1R)‐1‐Naphth‐1‐ylethyl]‐2,3‐dihydro‐1H‐isoindol‐5‐amine]
- Activity in the viral replication assay, in words (SARS‐CoV‐2; SARS‐CoV‐2, Vero E6 cells): completely inactive
- CC50 (in vitro): > 500 µM
- IC50 (SARS‐CoV PL^pro): 4.9 ± 0.3 µM
- IC50 (SARS‐CoV‐2 PL^pro): 57 ± 1 µM

Compound: C[C@H](c1cccc2ccccc12)N1Cc2ccc(O)cc2C1 [Compound 14 l, 2‐[(1R)‐1‐Naphth‐1‐ylethyl]‐2,3‐dihydro‐1H‐isoindol‐5‐ol hydrochloride]
- IC50 (SARS‐CoV PL^pro): 4.5 ± 0.4 µM

Compound: Cc1ccccc1CN[C@H](C)c1cccc2ccccc12 [Compound 17, (1R)‐N‐(2‐Methylbenzyl)‐1‐naphth‐1‐ylethylamine hydrochloride]
- inhibition at 100 µM (SARS‐CoV PL^pro; [4]): 55%
